The text below walks through data of patent US8257921B1, “NRIP1 regulation of apolipoprotein A1” (Schering Corporation, priority 2008, dated 2012).

For one data set, the system named is NRIP1 target mRNA. Nature of the data set: NRIP1 mRNA by RT-qPCR in transfected HepG2 cells. In kind it is cell-based, human. The following applies: for NRIP1 target gene expression, dose response: 4-fold dilutions from 100 nM to 1.56 nM (FIG. 7); for NRIP1 gene expression (suppression): individual siRNA duplexes 100 nM, vs siNT and lipid controls (FIG. 6). How it is done:
(§1) Cultured human hepatoma cell line HepG2 cells were seeded in 6-well plates at a density of 4E5 (i.e., 4×10^5) cells/well in antibiotic free 10% FBS/MEME and cultured for 16 hours. siRNA (20 μM) was prepared by diluting to 2 μM with buffer. To that, equal amounts Opti-MEM medium was added, mixed and kept at room temperature (RT) for 5 minutes. Transfection lipid was prepared using DharmaFECT 4 transfection reagent X25 times diluted with Opti-MEM medium (4 μL/100 medium), mixed and kept at RT for 5 minutes. siRNA and transfection lipid were complexed by mixing equal volumes and incubated for 20 minutes at RT. Cultured HepG2 cells in 6-sell plates were changed into fresh antibiotic free 10% FBS/MEME (1.6 mL/well) and 400 complexed siRNA was added to each well to a final concentration of 100 nM and incubated for 48 hrs.
HepG2 cells were transfected with varying concentrations of pooled NRIP1 siRNA as described in Example 1, except that 24 hours post transfection 10 μM 9 cis-retinoic acid was added to the growth medium. Cells were harvested 24 hours later and apoA1 and NRIP1 mRNA levels measured as previously described. RT-qPCR was performed as described (Zhu et al., Analytical Biochemistry 345:102-109 (2005)) using the following NRIP1 specific primer/probes:
HepG2 cells were transfected with four individual NRIP1 siRNA duplexes at a concentration of 100 nM or a pool of all four siRNAs at a final concentration 100 nM following the protocol previously described. Following isolation of total RNA, RT-qPCR was performed for apoA1 and NRIP1 gene expression. FIG. 5 compared apoA1 mRNA gene expression for siRNA samples to the siNT and lipid controls. In FIG. 6, expression levels of NRIP1 gene expression were similarly evaluated.
The differential effectiveness of individual sequence specific RNAi molecules to inhibit gene expression is well documented (Soutschek et al., Nature 432: 173-178 (2004)). […] The NRIP1 siRNA #5 and #8 were compare using 4-fold dilutions from 100 nM to 1.56 nM.
Background: Quantitative PCR measures a nucleic acid by following its amplification.

Data set [1] deals with apoA1 mRNA. Nature of the data set: apoA1 mRNA by RT-qPCR in transfected HepG2 cells. In kind it is cell-based, human. The following applies: for apoA1 mRNA levels: individual NRIP1 Dicer substrate dsiRNA duplexes (FIG. 8).
Text: Pools of siRNAs that were targeted to NRIP1 (#27) and 32 other transcription modulators were transfected into cultured HepG2 cell along with experimental controls apoA1 siRNA (siApoA1), siRNA non-targeting control (siNT) and transfection media without siRNA (HepG2). […] Each siRNA was designed and synthesized by Dharmacon to interact in a sequence specific manner with the target mRNA and suppress gene expression. For NRIP1, the following siRNA duplexes were used based on the NRIP1 sequence found under GenBank Accession no. NM_173440.
as §1, with “Cultured HepG2 cells in 6-sell plates were changed into fresh antibiotic free 10% FBS/MEME (1.6 mL/well) and 400 complexed siRNA was added to each well to a final concentration of 100 nM and incubated for 48 hrs.” left out
Forty-eight hours post transfection, medium was removed from transfected HepG2 culture and assessed for secreted apoA1 levels using a human apoA1 sandwich ELISA (MabTech) as described by the manufacturer. […]
HepG2 cells were transfected with varying concentrations of pooled NRIP1 siRNA as described in Example 1, except that 24 hours post transfection 10 μM 9 cis-retinoic acid was added to the growth medium. Cells were harvested 24 hours later and apoA1 and NRIP1 mRNA levels measured as previously described. […]
HepG2 cells were transfected with four individual NRIP1 siRNA duplexes at a concentration of 100 nM or a pool of all four siRNAs at a final concentration 100 nM following the protocol previously described. […] In FIG. 6, expression levels of NRIP1 gene expression were similarly evaluated. […]

Data set [2] concerns apoA1 mRNA. The following applies: HepG2 cells; Haghpassand et al. 1995; cited from earlier work.

For “siRNA #5: NRIP1 siRNA duplex: sense GAAGCGUGCUAACGAUAAAUU (SEQ ID NO: 7), antisense 5′P-UUUAUCGUUAGCACGCUUCUU (SEQ ID NO: 12) (5' phosphate on antisense strand, further chemistry not given here)”, in the data set on NRIP1 target mRNA, the “NRIP1 target gene expression, dose response” value is “inhibited better by siRNA #8 over siRNA #5” and the “NRIP1 gene expression (suppression)” value is on record as “most effective”.

On to “dsi#27-2: NRIP1 Dicer substrate RNAi duplex (IDT): sense 5′-AGGAGUCACAGAAAUAAUGAAAUGG, antisense 5′-CCAUUUCAUUAUUUCUGUGACUCCUGU”, for which the “apoA1 mRNA levels” value in the data set on apoA1 mRNA [1] is recorded as “elevated”.

As for `CC1=C(/C=C/C(C)=C\C=C\C(C)=C\C(=O)O)C(C)(C)CCC1` [9CRA, 9-cis retinoic acid], in the data set on apoA1 mRNA [2], the “endogenous apoA1 gene expression” value is reported as “stimulates”.

Take “dsi#27-1: NRIP1 Dicer substrate RNAi duplex (IDT): sense 5′-AGACUAUACCUAAGCCAAUGAAUGG, antisense 5′-CCAUUCAUUGGCUUAGGAUAGUCUGG”: the “apoA1 mRNA levels” value in the data set with apoA1 mRNA [1] is “elevated”.

With “oligo #7: NRIP1 siRNA duplex: sense GGACUGGAAUGCAGCAAAGUU (SEQ ID NO: 14), antisense 5′P-CUUUGCUGCAUUCCAGUCCUU (SEQ ID NO: 15) (5' phosphate on antisense, further chemistry not given here)”, the “NRIP1 gene expression (suppression)” value in the data set on NRIP1 target mRNA was “least effective”. For the same molecule, in the data set on apoA1 mRNA [1] (individual siRNA duplexes 100 nM, vs siNT and lipid controls (FIG. 5)), the “apoA1 mRNA gene expression (induction)” value is reported as “least effective”.

For the molecule “siRNA #8: NRIP1 siRNA duplex: sense AUACGAAUCUUCCUGAUGUUU (SEQ ID NO: 9), antisense 5′P-ACAUCAGGAAGAUUCGUAUUU (SEQ ID NO: 16) (5' phosphate on antisense strand, further chemistry not given here)”, in the data set on NRIP1 target mRNA, the “NRIP1 target gene expression, dose response” value is “inhibited better” and the “NRIP1 gene expression (suppression)” value was “most effective”.
